Earlier results as cited in patent US11331329B2, “Fucosylated oligosaccharides for prevention of coronavirus infection” (Glycosyn LLC, priority 2020, dated 2022).

Settings: oral

2′-Fucosyllactose [2′-FL]
toxicity (natural component of human milk): non-toxic
high doses that may lead to mild gut discomfort and a reversible osmotic diarrhea (adult): > 10 g per day
